For orientation: IC50 means the concentration that inhibits the measured activity by half.

The nature of one assay: Half-maximal inhibition of [125I]CCK-33 binding to cholecystokinin receptor.
As for `O=C1Nc2ccc(Cl)cc2C(c2ccccc2)=N[C@@H]1Cc1c[nH]c2ccccc12`, the IC50 was found to be 3.4 µM.

A further assay in a line: Half-maximal inhibition of [125I]gastrin binding to guinea pig gastric glands.
On to `O=C(NC1N=C(c2ccccc2)c2ccccc2NC1=O)c1cccc(Cl)c1` (stereo unspecified) [3-Chloro-N-(2-oxo-5-phenyl-2,3-dihydro-1H-benzo[e][1,4]diazepin-3-yl)-benzamide:0.5CHCl3], for which the IC50 came to 19 µM.

With `CN1C(=O)C(NC(=O)c2ccc(Br)cc2)N=C(c2ccccc2)c2ccccc21` (stereo unspecified) [4-Bromo-N-(1-methyl-2-oxo-5-phenyl-2,3-dihydro-1H-benzo[e][1,4]diazepin-3-yl)-benzamide:0.05C3H6O], the 50% inhibitory concentration (IC50) amounted to 1.7 µM. Regarding `N#Cc1ccc(C(=O)NC2N=C(c3ccccc3)c3ccccc3NC2=O)cc1` (stereo unspecified) [4-Cyano-N-(2-oxo-5-phenyl-2,3-dihydro-1H-benzo[e][1,4]diazepin-3-yl)-benzamide], the IC50 came out at 22 µM. On the same count and under the same terms, then `CC(C)(C)c1ccc(C(=O)NC2N=C(c3ccccc3)c3ccccc3NC2=O)cc1` (stereo unspecified) [4-tert-Butyl-N-(2-oxo-5-phenyl-2,3-dihydro-1H-benzo[e][1,4]diazepin-3-yl)-benzamide: 0.12CHCl3], with 40 µM; and `O=C(NC1N=C(c2ccccc2F)c2ccccc2NC1=O)c1cc2cc(Cl)ccc2[nH]1` (stereo unspecified) [5-Chloro-1H-indole-2-carboxylic acid [5-(2-fluoro-phenyl)-2-oxo-2,3-dihydro-1H-benzo[e][1,4]diazepin-3-yl]-amide], with 20 µM. `O=C(NC1N=C(c2ccccc2F)c2ccccc2NC1=O)c1cc2cc(F)ccc2[nH]1` (stereo unspecified) [5-Fluoro-1H-indole-2-carboxylic acid [5-(2-fluoro-phenyl)-2-oxo-2,3-dihydro-1H-benzo[e][1,4]diazepin-3-yl]-amide: 0.23CHCL3] came in with an IC50 of more than 10 µM. On the same count and under the same terms, the value for `O=C(NC1N=C(c2ccccc2F)c2ccccc2NC1=O)c1cc2cc(O)ccc2[nH]1` (stereo unspecified) [5-Hydroxy-1H-indole-2-carboxylic acid [5-(2-fluoro-phenyl)-2-oxo-2,3-dihydro-1H-benzo[e][1,4]diazepin-3-yl]-amide] was 29 µM; that for `CN1C(=O)[C@H](NC(=O)[C@H](N)Cc2ccccc2)N=C(c2ccccc2)c2ccccc21` [(R)-2-amino-N-((R)-1-methyl-2-oxo-5-phenyl-2,3-dihydro-1H-benzo[e][1,4]diazepin-3-yl)-3-phenylpropanamide] was 55 µM; that for `O=C(O)CN1C(=O)C(NC(=O)c2cc3ccccc3[nH]2)N=C(c2ccccc2)c2ccccc21` (stereo unspecified) [CCK antagonist synthetic 20] was 0.65 µM. On the same count and under the same terms, the value for `CCOC(=O)CN1C(=O)C(NC(=O)c2ccccc2Cl)N=C(c2ccccc2F)c2ccccc21` (stereo unspecified) [[3-(2-Chloro-benzoylamino)-5-(2-fluoro-phenyl)-2-oxo-2,3-dihydro-benzo[e][1,4]diazepin-1-yl]-acetic acid ethyl ester] was 1.3 µM.

These data come from BindingDB's records for doi:10.1021/jm00120a002 (Merck Sharp & Dohme Research Laboratories, 1989).
